The structures appear in SMILES notation. Read-outs that look alike come from different tables or passages of the source.

The target in one assay is Rhesus PDE2A3 (Macaca mulatta, UniProt B3VTJ2). The assay can be described thus: PDE2 fluorescence polarization (IMAP FP) inhibition assay, rhesus enzyme. The assay is classed as biochemical, rhesus macaque. In short, it runs like this: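 Rhesus PDE2A3 came from lysate of transiently transfected AD293 cells, diluted to give 20% substrate conversion. Substrate was 50 nM FAM-cAMP with 1 uM cGMP activator in Tris pH 7.2/MgCl2 buffer, run 60 min at room temperature over 10-point 3-fold dilutions in 1% DMSO. Read-out was IMAP fluorescence polarization (mP) after ≥1 h binding.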
Chain of Rhesus PDE2A3 (B3VTJ2 1-941): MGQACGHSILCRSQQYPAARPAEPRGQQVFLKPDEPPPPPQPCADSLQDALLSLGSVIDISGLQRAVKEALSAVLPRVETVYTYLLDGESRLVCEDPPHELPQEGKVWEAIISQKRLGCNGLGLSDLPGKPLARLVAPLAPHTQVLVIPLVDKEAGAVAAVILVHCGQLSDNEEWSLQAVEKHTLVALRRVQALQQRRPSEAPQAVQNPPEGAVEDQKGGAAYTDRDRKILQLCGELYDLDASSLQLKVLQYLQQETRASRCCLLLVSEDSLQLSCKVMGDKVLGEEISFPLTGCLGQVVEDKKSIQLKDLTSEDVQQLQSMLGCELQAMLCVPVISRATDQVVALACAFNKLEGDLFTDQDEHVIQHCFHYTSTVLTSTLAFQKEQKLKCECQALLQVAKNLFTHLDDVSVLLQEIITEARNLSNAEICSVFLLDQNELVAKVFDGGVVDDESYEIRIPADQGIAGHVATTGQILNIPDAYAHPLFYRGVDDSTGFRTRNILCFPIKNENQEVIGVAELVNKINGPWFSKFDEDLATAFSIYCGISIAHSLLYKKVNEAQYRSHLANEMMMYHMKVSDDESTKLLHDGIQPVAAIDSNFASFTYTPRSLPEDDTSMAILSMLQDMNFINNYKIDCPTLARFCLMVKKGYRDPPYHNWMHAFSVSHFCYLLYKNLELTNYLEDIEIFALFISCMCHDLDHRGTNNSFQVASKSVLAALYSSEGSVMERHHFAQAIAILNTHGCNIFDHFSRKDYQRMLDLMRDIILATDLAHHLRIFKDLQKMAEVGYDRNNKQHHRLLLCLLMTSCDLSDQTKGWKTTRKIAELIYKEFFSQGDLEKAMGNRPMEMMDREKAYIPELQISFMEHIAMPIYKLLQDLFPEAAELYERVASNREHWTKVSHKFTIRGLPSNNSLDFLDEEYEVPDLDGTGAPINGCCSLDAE
In general terms: Fluorescence polarisation rises when a labelled molecule tumbles more slowly, as on binding a larger partner.

The target in a further assay is human PDE2A1 (Homo sapiens (Human), UniProt O00408). The assay can be described thus: IMAP FP PDE selectivity panel, human PDE2A1. The class given is biochemical. The essentials:
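GST-tagged human PDE2A1 expressed in insect cells, run at room temperature for 60 min with 50 nM FAM-cAMP containing 1000 nM cGMP, pH 7.2 Tris/MgCl2 buffer. IMAP fluorescence polarization read after binding step.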

[1] abbreviates: Rhesus PDE2, Lab A, read-out: Rhesus PDE2 Ki (nM) - Lab A.
Setting [2] is: Human PDE2, Lab A, read-out: Human PDE2 Ki (nM) - Lab A.
[3] abbreviates: Rhesus PDE2, Lab B, read-out: Rhesus PDE2 Ki (nM) - Lab B.
The mark [4] stands for this setting: Human PDE2, Lab B, read-out: Human PDE2 Ki (nM) - Lab B.

Chain of human PDE2A1 (O00408 other isoform, or with tags, fused parts or gaps): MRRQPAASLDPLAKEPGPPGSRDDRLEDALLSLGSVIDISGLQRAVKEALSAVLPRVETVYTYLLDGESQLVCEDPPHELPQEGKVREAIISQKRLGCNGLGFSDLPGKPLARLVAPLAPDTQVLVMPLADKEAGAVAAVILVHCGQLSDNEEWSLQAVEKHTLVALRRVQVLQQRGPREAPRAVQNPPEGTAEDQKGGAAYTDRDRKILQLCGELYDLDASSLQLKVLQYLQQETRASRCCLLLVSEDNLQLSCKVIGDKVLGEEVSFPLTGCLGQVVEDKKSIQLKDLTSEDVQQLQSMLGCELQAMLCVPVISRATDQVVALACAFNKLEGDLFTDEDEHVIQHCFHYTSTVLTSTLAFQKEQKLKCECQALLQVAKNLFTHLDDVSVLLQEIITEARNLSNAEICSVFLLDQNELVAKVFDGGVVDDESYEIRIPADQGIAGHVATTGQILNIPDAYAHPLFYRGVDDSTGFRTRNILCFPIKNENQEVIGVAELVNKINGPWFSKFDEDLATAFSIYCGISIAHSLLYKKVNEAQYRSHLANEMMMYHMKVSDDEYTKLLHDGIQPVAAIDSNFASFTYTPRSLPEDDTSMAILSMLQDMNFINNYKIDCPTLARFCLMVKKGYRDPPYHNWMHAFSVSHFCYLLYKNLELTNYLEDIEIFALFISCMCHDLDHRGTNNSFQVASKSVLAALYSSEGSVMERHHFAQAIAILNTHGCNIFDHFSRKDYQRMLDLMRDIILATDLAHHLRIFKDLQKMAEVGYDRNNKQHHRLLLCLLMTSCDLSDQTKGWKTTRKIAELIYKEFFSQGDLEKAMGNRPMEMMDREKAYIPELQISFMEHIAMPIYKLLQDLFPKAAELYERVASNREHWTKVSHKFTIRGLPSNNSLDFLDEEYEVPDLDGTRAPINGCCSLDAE

One may read the Ki as the equilibrium dissociation constant of an inhibitor or competing ligand from its target. `O=C(NC1(c2ccc(SC(F)(F)F)cc2)CC1)c1cc(=O)[nH]c(C2CC2)n1` [Example 199, 2-cyclopropyl-6-oxo-N-(1-{4-[(trifluoromethyl)sulfanyl]phenyl}cyclopropyl)-1,6-dihydropyrimidine-4-carboxamide]: the Ki on Rhesus PDE2A3 (setting [1]) stood at 12 nM; at human PDE2A1 (setting [2]), 7 nM.

As for `COc1ccc(C(C)(C)c2nc(C(=O)N[C@@H](c3ccc(SC(F)(F)F)cc3)C(C)C)cc(=O)[nH]2)cc1` [Example 490, 2-[1-(4-methoxyphenyl)-1-methylethyl]-N-[(1R)-2-methyl-1-{4-[(trifluoromethyl)sulfanyl]phenyl}propyl]-6-oxo-1,6-dihydropyrimidine-4-carboxamide], the Ki was found to be 43 nM at Rhesus PDE2A3 (setting [3]) and 31 nM on human PDE2A1 (setting [4]).

For `Cc1nc(C(=O)NC(C(=O)O)c2ccc(C(F)(F)F)cc2)cc(=O)[nH]1` (single isomer, unassigned) [Example 328], the Ki at Rhesus PDE2A3 (setting [1]) was determined as 33 nM; on human PDE2A1 (setting [2]), 38 nM.

For the compound `CC1([C@@H](NC(=O)c2cc(=O)[nH]c(C3CC3)n2)c2ccc(OC(F)F)cc2)CC1` [Example 443, 2-cyclopropyl-N-[(1R)-[4-(difluoromethoxy)phenyl](1-methylcyclopropyl)methyl]-6-oxo-1,6-dihydropyrimidine-4-carboxamide], the Ki turned out to be 8 nM on Rhesus PDE2A3 (setting [3]) and 7 nM on human PDE2A1 (setting [4]).

Take `CC[C@@H](NC(=O)c1cc(=O)[nH]c(Cc2ccc(OC)cc2)n1)c1ccc(OC(F)(F)F)c(F)c1` [Example 484, N-{(1R)-1-[3-fluoro-4-(trifluoromethoxy)phenyl]propyl}-2-(4-methoxybenzyl)-6-oxo-1,6-dihydropyrimidine-4-carboxamide]: the Ki amounted to 1.3 nM at Rhesus PDE2A3 (setting [3]) and 1.4 nM on human PDE2A1 (setting [4]).

Turning to `CSCC(NC(=O)c1cc(=O)[nH]c(-c2ccccc2)n1)c1ccc(C(F)(F)F)cc1` (stereo not drawn) [Example 341, N-{2-(methylsulfanyl)-1-[4-(trifluoromethyl)phenyl]ethyl}-6-oxo-2-phenyl-1,6-dihydropyrimidine-4-carboxamide], the Ki at Rhesus PDE2A3 (setting [1]) is about 11 nM; at Rhesus PDE2A3 (setting [3]) it was 24 nM; at human PDE2A1 (setting [4]), 19 nM.

Consider `CC(C)(C)[C@@H](NC(=O)c1cc(=O)[nH]c(C2CC2)n1)c1ccc(C2CC2)cc1` [Example 447, 2-cyclopropyl-N-[(1R)-1-(4-cyclopropylphenyl)-2,2-dimethylpropyl]-6-oxo-1,6-dihydropyrimidine-4-carboxamide], for which the Ki at Rhesus PDE2A3 (setting [3]) stood at 1.3 nM; at human PDE2A1 (setting [4]), 1.4 nM.

Take `CCC(NC(=O)c1cc(=O)[nH]c(-c2ccccc2)n1)c1ccc(C(C)(C)C)cc1` (stereo not drawn) [Example 163, N-[1-(4-tert-butylphenyl)propyl]-6-oxo-2-phenyl-1,6-dihydropyrimidine-4-carboxamide]: the Ki is 61 nM at Rhesus PDE2A3 (setting [1]) and 36 nM on human PDE2A1 (setting [2]).

Regarding `CC(C)[C@@H](NC(=O)c1cc(=O)[nH]c(-c2ccccc2)n1)c1ccc(SC(F)(F)F)c(F)c1` [Example 407, N-[(1R)-1-{3-fluoro-4-[(trifluoromethyl)sulfanyl]phenyl}-2-methylpropyl]-6-oxo-2-phenyl-1,6-dihydropyrimidine-4-carboxamide], the figures for the Ki on Rhesus PDE2A3 (setting [3]) and at human PDE2A1 (setting [4]) were 4.5 nM and 3.6 nM, respectively.

Turning to `COc1ccc(Cc2nc(C(=O)N[C@@H](c3ccc(SC(F)(F)F)c(F)c3)C3CC3)cc(=O)[nH]2)cc1F` [Example 520, N-[(R)-cyclopropyl{3-fluoro-4-[(trifluoromethyl)sulfanyl]phenyl}methyl]-2-(3-fluoro-4-methoxybenzyl)-6-oxo-1,6-dihydropyrimidine-4-carboxamide], the values for the Ki on Rhesus PDE2A3 (setting [3]) and at human PDE2A1 (setting [4]) were 3.8 nM and 3.6 nM, respectively.

In the case of `CC(C)(C)[C@@H](NC(=O)c1cc(=O)[nH]c(-c2ncccn2)n1)c1ccc(OC(F)(F)F)cc1` [Example 461, N-{(1R)-2,2-dimethyl-1-[4-(trifluoromethoxy)phenyl]propyl}-6-oxo-1,6-dihydro-2,2′-bipyrimidine-4-carboxamide], the Ki is 7.5 nM on Rhesus PDE2A3 (setting [3]) and 7.8 nM at human PDE2A1 (setting [4]).

On to `Cc1nc(C(=O)NC(C)c2ccc(C(F)(F)F)cc2Cl)cc(=O)[nH]1` (stereo not drawn) [Example 18, N-{1-[2-chloro-4-(trifluoromethyl)phenyl]ethyl}-2-methyl-6-oxo-1,6-dihydropyrimidine-4-carboxamide], for which the Ki at Rhesus PDE2A3 (setting [1]) was found to be 472 nM; on human PDE2A1 (setting [2]), 314 nM.

As for `CC[C@@H](NC(=O)c1cc(=O)[nH]c(C2CC2)n1)c1ccc(S(F)(F)(F)(F)F)cc1` [Example 242, 2-cyclopropyl-6-oxo-N-{(1R)-1-[4-(pentafluoro-λ^6-sulfanyl)phenyl]propyl}-1,6-dihydropyrimidine-4-carboxamide], the Ki turned out to be 5 nM at Rhesus PDE2A3 (setting [1]), 10 nM at Rhesus PDE2A3 (setting [3]) and 9.2 nM at human PDE2A1 (setting [4]).

For `CC(C)(C)[C@@H](NC(=O)c1cc(=O)[nH]c(-c2ccccc2)n1)c1ccc(OC(F)F)cc1` [Example 449, N-{(1R)-1-[4-(difluoromethoxy)phenyl]-2,2-dimethylpropyl}-6-oxo-2-phenyl-1,6-dihydropyrimidine-4-carboxamide], the Ki at Rhesus PDE2A3 (setting [3]) amounted to 2.6 nM; on human PDE2A1 (setting [4]) it was 1.8 nM.

`Cc1nc(C(=O)N[C@@H](c2ccc(C(F)(F)F)c(F)c2)C2CC2)cc(=O)[nH]1` [Example 68, N-{(R)-cyclopropyl[3-fluoro-4-(trifluoromethyl)phenyl]methyl}-2-methyl-6-oxo-1,6-dihydropyrimidine-4-carboxamide]: the Ki at Rhesus PDE2A3 (setting [1]) came to 26 nM; at human PDE2A1 (setting [2]), 17 nM.

On to `O=C(N[C@@H](c1ccc(OC(F)F)cc1)C1CC1)c1cc(=O)[nH]c(-c2ccccc2)n1` [Example 448, N-{(R)-cyclopropyl[4-(difluoromethoxy)phenyl]methyl}-6-oxo-2-phenyl-1,6-dihydropyrimidine-4-carboxamide], for which the values for the Ki at Rhesus PDE2A3 (setting [3]) and on human PDE2A1 (setting [4]) were 13 nM and 12 nM, respectively.

As to `O=C(NC1(c2ccc(C(F)(F)F)cc2)CC1)c1cc(=O)[nH]c(-c2ccccc2)n1` [Example 276, 6-oxo-2-phenyl-N-{1-[4-(trifluoromethyl)phenyl]cyclopropyl}-1,6-dihydropyrimidine-4-carboxamide], the Ki on Rhesus PDE2A3 (setting [1]) is 4.2 nM; on human PDE2A1 (setting [2]), 3.8 nM.

For the compound `O=C(NC1(c2ccc(OC(F)(F)F)c(F)c2)CC1)c1cc(=O)[nH]c(C2CC2)n1` [Example 201], the Ki on Rhesus PDE2A3 (setting [1]) stood at 4.4 nM; on human PDE2A1 (setting [2]) it was 2.8 nM.

On to `C[C@@H](NC(=O)c1nc(C2CCC2)[nH]c(=O)c1C1CCC1)c1ccc(C(F)(F)F)cc1` [Example 335, (R)-2,5-dicyclobutyl-6-oxo-N-(1-(4-(trifluoromethyl)phenyl)ethyl)-1,6-dihydropyrimidine-4-carboxamide], for which the Ki at Rhesus PDE2A3 (setting [1]) was determined as 1320 nM; at human PDE2A1 (setting [2]) it was 1220 nM.

Take `C[C@@H](NC(=O)c1cc(=O)[nH]c(-c2ncccn2)n1)c1ccc(C(F)(F)F)cc1` [Example 291, 6-oxo-N-{(1R)-1-[4-(trifluoromethyl)phenyl]ethyl}-1,6-dihydro-2,2′-bipyrimidine-4-carboxamide]: the Ki is 11 nM on Rhesus PDE2A3 (setting [1]) and 10 nM at human PDE2A1 (setting [2]).

As for `Cc1nc(C(=O)NC2(c3ccc(OC(F)(F)F)cc3)CCC2)cc(=O)[nH]1` [Example 269], the figures for the Ki at Rhesus PDE2A3 (setting [1]), on human PDE2A1 (setting [2]) and on human PDE2A1 (setting [4]) were 158 nM, 118 nM and 96 nM, respectively.
